Data from article PMC4336573 (Chemistry & biology, 2015).

Each compound was assayed against T1, CBX7ChD (Homo sapiens, UniProt O95931).
T1 sequence (O95931 11-69 limits assumed): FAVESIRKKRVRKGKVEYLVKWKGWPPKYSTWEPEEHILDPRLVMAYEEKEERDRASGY
Format: binding

| IC50 | Compound |
| --- | --- |
| 3.9 µM | Cc1cc(-c2ccc(/N=N/c3ccc4c(S(=O)(=O)O)cc(S(=O)(=O)O)c(N)c4c3O)c(C)c2)ccc1/N=N/c1ccc2c(S(=O)(=O)O)cc(S(=O)(=O)O)c(N)c2c1O [Evans blue] |
| 7.5 µM | Cc1cc(-c2ccc(/N=N/c3c(S(=O)(=O)O)cc4cc(S(=O)(=O)O)cc(N)c4c3O)c(C)c2)ccc1/N=N/c1c(S(=O)(=O)O)cc2cc(S(=O)(=O)O)cc(N)c2c1O [Trypan blue] |
| 5.5 µM | O=C(O)C1=CC(=C(c2ccc(O)c(C(=O)O)c2)c2ccc(O)c(C(=O)O)c2)C=CC1=O [Aurin tricarboxylic acid] |
| 33.3 µM | O=C(O)c1cc(O)c2c(c1)[C@H]([C@H]1c3cc(C(=O)O)cc(O)c3C(=O)c3c(O[C@@H]4O[C@H](CO)[C@@H](O)[C@H](O)[C@H]4O)cccc31)c1cccc(O[C@@H]3O[C@H](CO)[C@@H](O)[C@H](O)[C@H]3O)c1C2=O [Sennoside A] |
